# Key:
# [1] = Blood insulin response (insulinemic index, II) after consumption, randomized cross over analysis; type: in vivo, human; conditions: ten healthy subjects, 25 g carbohydrate and 250 ml water, 0 to 180 minutes
# Description: (§1) The effect of trehalulose on the blood glucose response (glycemic index, GI) and the insulin response (insulinemic index, II) was examined in comparison to isomaltulose. The analysis was done as a randomized cross over analysis on ten healthy subjects of both sex. Blood glucose- and insulin-profiles were taken after consumption of isomaltulose or trehalulose (each 25 g carbohydrate and 250 ml water) for an interval of 0 to 180 minutes at the following time points 0, 15, 30, 45, 60, 90, 120, 150 and 180 minutes.
# [2] = Blood glucose response (glycemic index, GI) after consumption, randomized cross over analysis; type: in vivo, human; conditions: ten healthy subjects, 25 g carbohydrate and 250 ml water, 0 to 180 minutes, compared to isomaltulose
# Description: as §1
# [3] = Stability of trehalulose during preparation (cooking) of jellies; type: physicochemical; conditions: when cooking the jellies
# Description: In the following, four recipes for jellies using as sweeteners a mixture of sucrose and glucose and four recipes using the trehalulose-containing composition, that means vitalose, of the present invention are prepared. The jellies prepared were tested comparatively in storage and TPA-analysis.
# In all of the jelly recipes the conventional sweetener combination of sucrose and glucose could be successfully replaced by the trehalulose-containing composition, that means vitalose, of the present invention. The preparation using the trehalulose-containing composition, that means vitalose, was exactly as for the sucrose/glucose compositions.
structure (smiles),measurement,setting,value
"O=C(CO)[C@@H](O)[C@H](O)[C@H](O)CO[C@H]1O[C@H](CO)[C@@H](O)[C@H](O)[C@H]1O [isomaltulose, 6-O-α-D-glucopyranosyl-D-fructose, reference compound]","insulin response (II), blood insulin level",[1],in parallel to the blood glucose response
"O=C(CO[C@H]1O[C@H](CO)[C@@H](O)[C@H](O)[C@H]1O)[C@@H](O)[C@H](O)[C@H](O)CO [trehalulose, 1-O-α-D-glucopyranosyl-D-fructose]","insulin response (II), blood insulin level",[1],significantly lower insulin response (II) than isomaltulose
same,"blood glucose response (GI), blood glucose level",[2],increased and longer sustaining supply of glucose
same,degradation during preparation,[3],no degradation of trehalulose was observed

# — patent publication US9707249B2, “Trehalulose-containing composition, its preparation and use” (SÜDZUCKER AKTIENGESELLSCHAFT MANNHEIM/OCHSENFURT, priority 2009, dated 2017)
